Measured values reported in the supplement of paper PMC10307832.

What was measured:
Assay in all cases: relative viability (nuclei count vs DMSO), 5 days (fraction); higher = more cells survive
[1] = compound: C=CCc1cccc(/C=N/NC(=O)CN2CCN(Cc3ccccc3)CC2)c1O [PAC-1] + CC(=O)c1c(C)c2cnc(Nc3ccc(N4CCNCC4)cn3)nc2n(C2CCCC2)c1=O [Palbociclib] (partner 0.5 µM)
In short: (§1)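 After 5 days of treatment, lung cancer cells in 1536-well plates were fixed and stained in a single step (final 0.05% Triton X-100, 1% formaldehyde, 1 ug/ml Hoechst) and their nuclei counted on 4× images. Treatment had been applied by pin tool the day after seeding as one drug alone or as a fixed anchor-drug dose with five library-drug doses (not always all listed) in √10 steps. Relative viability is the nuclei count of treated wells divided by that of vehicle wells, and values are medians of duplicate plates.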

[2] = compound: C=CC(=O)Nc1cc(-n2c(=O)ccc3cnc4ccc(-c5ccc(NS(C)(=O)=O)cc5)cc4c32)ccc1C [BMX-IN-1] + CC(=O)c1c(C)c2cnc(Nc3ccc(N4CCNCC4)cn3)nc2n(C2CCCC2)c1=O [Palbociclib] (partner 0.5 µM)
In short: as §1

[3] = compound: C=CC(=O)N1CCC[C@@H](n2nc(-c3ccc(Oc4ccccc4)cc3)c3c(N)ncnc32)C1 [Ibrutinib] + COc1cccc2cc(-c3nc([C@H]4CC[C@H](C(=O)O)CC4)n4ncnc(N)c34)[nH]c12 [OSI-027] (partner 0.5 µM)
In short: as §1

[4] = compound: C=CC(=O)Nc1cc(-n2c(=O)ccc3cnc4ccc(-c5ccc(NS(C)(=O)=O)cc5)cc4c32)ccc1C [BMX-IN-1] + N=C(N)NC(=N)NCCc1ccccc1 [Phenformin] (partner 250 µM)
In short: as §1

In the case of SK-MES-1, the relative viability ([1]; first compound 0.02 µM) is reported as 0.336, the relative viability ([1]; first compound 0.06325 µM) is reported as 0.311 and the relative viability ([1]; first compound 0.2 µM) is reported as 0.315. The relative viability ([1]; first compound 2 µM) was 0.308, the relative viability ([2]; first compound 0.02 µM) was 0.303 and the relative viability ([2]; first compound 0.2 µM) was 0.333. For the same cell line, the relative viability ([2]; first compound 0.6325 µM) was 0.355, the relative viability ([2]; first compound 2 µM) was 0.271 and the relative viability ([3]; first compound 0.005 µM) was 0.584. The relative viability ([3]; first compound 0.01581 µM) was 0.568, the relative viability ([3]; first compound 0.05 µM) was 0.584 and the relative viability ([3]; first compound 0.1581 µM) was 0.687. It also gave a relative viability ([3]; first compound 0.5 µM) of 0.357, a relative viability ([4]; first compound 0.02 µM) of 0.711 and a relative viability ([4]; first compound 0.2 µM) of 0.792. It also gave a relative viability ([4]; first compound 0.6325 µM) of 0.695 and a relative viability ([4]; first compound 2 µM) of 0.724.
